We go through twelve substances from the OligoGym collection.

Several values for one entry are separate records, joined by “and”; a condition that tells them apart may be missing. Identical values can stand only once. HELM strings list units from the 5' end as sugar, base in round brackets, then linkage (d deoxyribose, r ribose, m 2'-O-methyl, p phosphodiester). Methylation of C is not given here. [moe] = 2'-O-(2-methoxyethyl) (MOE); [cEt] = constrained ethyl (cEt); [sp] = phosphorothioate linkage

This data set has as its target HBV. Conditions: ASO.

As to “RNA1{[moe](G)[sp].[moe](G)[sp].[moe](T)[sp].[moe](G)[sp].[moe](A)[sp].[moe](A)[sp].d(G)[sp].d(C)[sp].d(G)[sp].d(A)[sp].d(A)[sp].d(G)[sp].d(T)[sp].d(G)[sp].d(C)[sp].[moe](A)[sp].[moe](C)}$$$$V2.0”, the target mRNA inhibition (HepG2, 0.07 µM) is 85% and 67%.

In the case of “RNA1{[moe](G)[sp].[cEt](A)[sp].d(G)[sp].d(A)[sp].d(A)[sp].d(G)[sp].d(T)[sp].d(C)[sp].d(C)[sp].d(A)[sp].d(C)[sp].d(C)[sp].[cEt](A)[sp].[moe](C)[sp].[cEt](G)[sp].[moe](A)}$$$$V2.0”, the target mRNA inhibition (HepG2, 0.07 µM) is 34% and 43%. The same measure, in the same setting: the value for “RNA1{[moe](C)[sp].[moe](A)[sp].[moe](C)[sp].[moe](T)[sp].d(A)[sp].d(G)[sp].d(T)[sp].d(A)[sp].d(A)[sp].d(A)[sp].d(C)[sp].d(T)[sp].d(G)[sp].[moe](A)[sp].[moe](G)[sp].[moe](C)[sp].[moe](C)}$$$$V2.0” was 61% and 54%; that for “RNA1{[moe](G)[sp].[moe](T)[sp].[moe](T)[sp].[moe](C)[sp].[moe](C)[sp].d(G)[sp].d(C)[sp].d(A)[sp].d(G)[sp].d(T)[sp].d(A)[sp].d(T)[sp].d(G)[sp].d(G)[sp].[moe](A)[sp].[moe](T)}$$$$V2.0” was 54% and 51%. Still for that read-out and setting: the figure for “RNA1{[moe](G)[sp].[moe](A)[sp].[moe](T)[sp].d(G)[sp].d(A)[sp].d(G)[sp].d(G)[sp].d(C)[sp].d(A)[sp].d(T)[sp].d(A)[sp].d(G)[sp].[moe](C)[sp].[moe](A)[sp].[moe](G)[sp].[moe](C)[sp].[moe](A)}$$$$V2.0” is 51%; for “RNA1{[moe](C)[sp].[moe](A)[sp].d(G)[sp].d(A)[sp].d(G)[sp].d(G)[sp].d(T)[sp].d(G)[sp].d(A)[sp].d(A)[sp].d(G)[sp].[moe](C)[sp].[moe](G)[sp].[moe](A)[sp].[moe](A)[sp].[moe](G)[sp].[moe](T)}$$$$V2.0” it is 61%. Take “RNA1{[moe](C)[sp].[moe](C)[sp].[moe](A)[sp].[moe](A)[sp].[moe](T)[sp].d(T)[sp].d(T)[sp].d(A)[sp].d(T)[sp].d(G)[sp].d(C)[sp].d(C)[sp].d(T)[sp].d(A)[sp].[moe](C)[sp].[moe](A)}$$$$V2.0”: the target mRNA inhibition (HepG2, 0.07 µM) is 15% and 6%. The same measure, in the same setting: the value for “RNA1{[moe](A)[sp].[moe](A)[sp].[moe](C)[sp].d(T)[sp].d(G)[sp].d(G)[sp].d(A)[sp].d(G)[sp].d(C)[sp].d(C)[sp].d(A)[sp].d(C)[sp].[moe](C)[sp].[moe](A)[sp].[moe](G)[sp].[moe](C)[sp].[moe](A)}$$$$V2.0” was 69% and 58%. “RNA1{[moe](G)[sp].[cEt](C)[sp].d(A)[sp].d(G)[sp].d(A)[sp].d(G)[sp].d(G)[sp].d(T)[sp].d(G)[sp].d(A)[sp].d(A)[sp].d(G)[sp].[cEt](C)[sp].[moe](G)[sp].[cEt](A)[sp].[moe](A)}$$$$V2.0”: the target mRNA inhibition is 21% (HepG2, 0.0092593 µM); 48% (HepG2, 0.0277778 µM); 80% and 85% (HepG2, 0.07 µM); 74% (HepG2, 0.0833333 µM); 88% (HepG2, 0.25 µM). For the substance “RNA1{[moe](G)[sp].[moe](C)[sp].[moe](A)[sp].d(T)[sp].d(A)[sp].d(G)[sp].d(C)[sp].d(A)[sp].d(G)[sp].d(C)[sp].d(A)[sp].d(G)[sp].d(G)[sp].[cEt](A)[sp].[cEt](T)[sp].[cEt](G)}$$$$V2.0”, the target mRNA inhibition (HepG2, 0.07 µM) is 67% and 76%. The same measure, in the same setting: the value for “RNA1{[moe](T)[sp].[moe](T)[sp].[moe](C)[sp].d(C)[sp].d(G)[sp].d(C)[sp].d(A)[sp].d(G)[sp].d(T)[sp].d(A)[sp].d(T)[sp].d(G)[sp].d(G)[sp].[cEt](A)[sp].[cEt](T)[sp].[cEt](C)}$$$$V2.0” was 60% and 68%; that for “RNA1{[moe](G)[sp].[moe](A)[sp].[moe](G)[sp].[moe](G)[sp].d(C)[sp].d(A)[sp].d(T)[sp].d(A)[sp].d(G)[sp].d(C)[sp].d(A)[sp].d(G)[sp].d(C)[sp].[moe](A)[sp].[moe](G)[sp].[moe](G)}$$$$V2.0” was 45% and 50%.
